According to publication PMC6766848, “Inhibition of Pancreatic α-amylase by Resveratrol Derivatives: Biological Activity and Molecular Modelling Evidence for Cooperativity between Viniferin Enantiomers” (Molecules, 2019):

Target: T1, Porcine pancreatic α-amylase (Sus scrofa, UniProt P00690)
T1 construct: purchased Sigma-Aldrich (Milan, Italy)
T1 sequence (P00690 16-511): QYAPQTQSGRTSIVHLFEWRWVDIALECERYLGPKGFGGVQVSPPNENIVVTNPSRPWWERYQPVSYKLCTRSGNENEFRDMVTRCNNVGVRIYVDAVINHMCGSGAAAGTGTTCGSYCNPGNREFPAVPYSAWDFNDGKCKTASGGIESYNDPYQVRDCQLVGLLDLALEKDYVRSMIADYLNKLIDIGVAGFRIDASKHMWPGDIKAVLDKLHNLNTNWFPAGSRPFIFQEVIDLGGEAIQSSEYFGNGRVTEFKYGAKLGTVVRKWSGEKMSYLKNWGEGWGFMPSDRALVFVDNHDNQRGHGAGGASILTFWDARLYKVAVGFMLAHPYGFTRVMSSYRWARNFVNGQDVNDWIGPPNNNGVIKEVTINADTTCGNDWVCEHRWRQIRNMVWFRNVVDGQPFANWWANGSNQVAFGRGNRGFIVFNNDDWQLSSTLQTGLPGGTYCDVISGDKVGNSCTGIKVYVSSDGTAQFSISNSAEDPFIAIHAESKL
Assay: Pancreatic α-amylase inhibition (modified K-AMYLSD kit, p-nitrophenyl-α-D-maltoheptaoside substrate)
Format: biochemical
Details: for inhibition at 10000 µM: 10 mM final concentration; for Hill cooperativity coefficient (n^H) / Ki: three-parameter Hill equation fit, inhibitor zero to 0.1 mM; for Ki: read-out: Ki^app
Procedure: The monomeric and dimeric stilbenoids described above were tested for their ability to inhibit the enzyme α-amylase, using acarbose as a reference compound. The method used to evaluate the enzyme activity relies on a two-step procedure. In a first step, α-amylase acts on a modified p-nitrophenyl-α-D-maltoheptaoside, releasing products that may be hydrolyzed by an excess α-glucosidase present in the assay mixture, therefore allowing spectrophotometric quantitation of the released p-nitrophenolate anion.
Porcine pancreatic α-amylase [EC 3.2.1.1] was from Sigma-Aldrich (Milan, Italy). Activity was monitored by using the K-AMYLSD kit from Megazyme (Bray, Ireland), with modifications. An aliquot of α-amylase (0.03 mL, 0.1 μM in 50 mM phosphate buffer, pH 6.8) was added to 0.120 mL of 50 mM phosphate buffer, pH 6.8, in a microtiter plate well. The investigated compounds where then added as methanolic solutions (0.03 mL) of appropriate concentration. The reaction was started by adding 0.02 mL of the substrate solution provided with the kit, resulting in a final concentration of 0.4 μM substrate. The kit-provided substrate solution also contained an excess of thermostable bacterial α-glucosidase, that is required for the release of the p-nitrophenolate anion from the p-nitrophenyl glucosides produced by the activity of α-amylase on the chemically modified maltoheptaoside. At appropriate times, the reaction was stopped by adding 0.1 mL of 0.2 M Na2CO3, and the absorbance was read in a microplate reader set at 405 nm. Blanks were prepared in the absence of the pancreatic α-amylase. […] Acarbose (from a stock solution in methanol) was used as the reference inhibitor. A minimum of three independent replications was carried out for each assay.

| SMILES | inhibition at 10000 µM (versus controls with 15% MeOH) [%] | further results |
| --- | --- | --- |
| COc1cc(/C=C/c2ccc3c(c2)[C@@H](c2cc(OC)cc(OC)c2)[C@H](c2ccc(O)cc2)O3)cc(OC)c1 (relative stereo) [compound 8, pterostilbene-trans-dihydrodimer] | 28 |  |
| Oc1ccc([C@@H]2Oc3ccc(/C=C/c4cc(O)cc(O)c4)cc3[C@H]2c2cc(O)cc(O)c2)cc1 [(R, R)-trans-δ-viniferin] |  | Hill cooperativity coefficient (n^H): 1.5; Ki: 43 µM |
| Oc1ccc([C@H]2Oc3ccc(/C=C/c4cc(O)cc(O)c4)cc3[C@@H]2c2cc(O)cc(O)c2)cc1 [(S, S)-trans-δ-viniferin] |  | Hill cooperativity coefficient (n^H): four; Ki: 58 µM |
| C[C@H]1O[C@H](O[C@H]2[C@H](O)[C@@H](O)[C@@H](O[C@H]3[C@H](O)[C@@H](O)C(O)O[C@@H]3CO)O[C@@H]2CO)[C@H](O)[C@@H](O)[C@@H]1N[C@H]1C=C(CO)[C@@H](O)[C@H](O)[C@H]1O (stereo partly shown) [acarbose, reference compound] |  | inhibition at 1000 µM (1 mM final concentration, versus controls with 15% MeOH): 86% |
| COc1cc(/C=C/c2ccc(O)cc2)cc(OC)c1 [compound 2, pterostilbene] | 21 |  |
| Oc1ccc(C2Oc3ccc(C=Cc4cc(O)cc(O)c4)cc3C2c2cc(O)cc(O)c2)cc1 (stereo not drawn) [compound 5, Trans-δ-viniferin] | ~90 |  |
| Oc1ccc(C=Cc2cc(O)cc3c2C(c2cc(O)cc(O)c2)C(c2ccc(O)cc2)O3)cc1 (stereo not drawn) [compound 6, Trans-ε-viniferin] | ~90 |  |
| Oc1ccc([C@@H]2c3c(O)cc(O)cc3[C@H]3[C@H](c4ccc(O)cc4)c4c(O)cc(O)cc4[C@@H]23)cc1 [compound 7, pallidol] | 21 to 45 |  |
